The test system of assay [1] is Staphylococcus aureus 33592 (MRSA). Put plainly: ASTM E2315 suspension time-kill procedure. The format is cell-based. Particulars: contact time 2 hours; for CFU/mL / % Reduction / Log10 reduction: S. aureus 33592; for % Reduction / Log10 reduction: vs time zero control. The procedure:
(§1) Efficacy of these substances, alone and in combination, was tested against two strains of bacteria using the ASTM E2315 test method.
(2) Staphylococcus aureus 33592 (MRSA): This is a Gram-positive, coccus-shaped aerobe that is resistant to methicillin, a penicillin derivative. Rapid reproduction and resistance to antibiotics can make S. aureus infections particularly difficult to treat. MRSA bacteria are resistant to drying and can survive on surfaces and fabrics for an extended period of time.
(§2) ASTM E2315 is a quantitative test method designed to assess changes in the populations of a microorganism in an antimicrobial liquid suspension. The method can be conducted using contact times ranging from 10 seconds to 24 hours. The test method uses non-antimicrobial agents as controls to establish baselines for microbial reductions.
(§3) Test microorganisms were prepared in liquid culture medium. Suspensions of test microorganisms were standardized as needed by dilution in a buffered saline solution. Test and control substances were dispensed in identical volumes to sterile vessels.
(§4) Independently, test and control substances were inoculated with each test microorganism, then mixed and incubated. Control substances were immediately harvested and used to represent the concentration present at the start of the test.
(§5) At the conclusion of the contact time, a volume of liquid test solution was harvested and chemically neutralized. Test microorganisms were spun down and the cell pellet was resuspended in phosphate buffered saline (PBS) prior to inoculation of the test systems. 10 mL volumes of Dey/Engley neutralizer broth supplemented with 5% magnesium chloride and 35% polysorbate 80 were used for chemical neutralization. After chemical neutralization, test systems were filtered using a filtration manifold to recover surviving microorganisms.
(§6) Dilutions of neutralized test solution were assayed using appropriate growth media to determine surviving microorganism levels at each respective contact time. Reductions of microorganisms were calculated by comparing initial microbial concentrations to final microbial concentrations. The limit of detection for the assay was 10 CFU/mL.
(§7) Percent reduction of bacterial population was calculated according to the following equation, where A=number of viable test microorganisms in the test substance after the contact time and B=number of viable test microorganisms in the control substance immediately after inoculation. Log10 reduction was also calculated.
(§8) The experimental procedure of Example 1 was followed with the exception of substitutions of some antibiotics. Cefuroxime (a second generation cephalosporin) and/or ceftazidime (a third generation cephalosporin active against P. aeruginosa) were used to replace cefazolin.

For assay [2], the system named is Pseudomonas aeruginosa 9027. In words: ASTM E2315 suspension time-kill procedure. The format is cell-based. The note with it: P. aeruginosa 9027, contact time 2 hours; for % Reduction / Log10 reduction: vs time zero control. The procedure: as §1
(1) Pseudomonas aeruginosa 9027: This is a Gram-negative, rod-shaped microorganism with a single flagellum. P. aeruginosa grows optimally under aerobic conditions but can use various electron acceptors to respire anaerobically as needed. This organism is an opportunistic pathogen with the ability to form resilient biofilms in human tissues under anaerobic conditions.
as §2, §3, §4, §5, §6, §7, §8

The mark [3] stands for this setting: Example 2, time zero control 3.35 × 10^7 CFU/mL.

Consider `Cc1nnc(SCC2=C(C(=O)O)N3C(=O)[C@@H](NC(=O)Cn4cnnn4)[C@H]3SC2)s1` [Test 1, Cefazolin], for which the CFU/mL in assay [1] (Example 1, time zero control 2.85 × 10^6 CFU/mL, ambient 25° C.) is listed as 1.44 × 10^5 CFU/mL. In addition, in assay [1] (Example 1), the “% Reduction” value is 94.96% and the Log10 reduction was 1.30.
Turning to `CO/N=C(\C(=O)N[C@@H]1C(=O)N2C(C(=O)O)=C(COC(N)=O)CS[C@H]12)c1ccco1` [Test 8, Cefuroxime], the CFU/mL in assay [1] (Example 2, time zero control 1.75 × 10^6 CFU/mL) is given as 1.50 × 10^6 CFU/mL. In assay [1] (Example 2), the “% Reduction” value amounted to 14.29% and the Log10 reduction is given as 0.07. In addition, the “antibacterial effect / interaction of the antibiotics, in words” value (“antibacterial effect / interaction” below) in assay [1] (S. aureus 33592 (MRSA)) is listed as “less activity against MRSA than the first generation cephalosporin, cefazolin”.
`CO/N=C(\C(=O)N[C@@H]1C(=O)N2C(C(=O)O)=C(COC(N)=O)CS[C@H]12)c1ccco1` [Test 12, Cefuroxime]: in assay [2] (setting [3]), the CFU/mL is reported as 2.00 × 10^5 CFU/mL. For the same compound, in assay [2] (Example 2), the “% Reduction” value came out at 99.44% and the Log10 reduction is listed as 2.25. Also, the “antibacterial effect / interaction” value in assay [2] is listed as “bactericidal”.
Polymyxin B [Test 5]: the CFU/mL in assay [2] (Example 1, time zero control 1.80 × 10^6 CFU/mL, limit of detection 10 CFU/mL) was <1.00 × 10^1 CFU/mL. Further, in assay [2] (Example 1), the “% Reduction” value was greater than 99.9996% and the Log10 reduction is greater than 5.45. Moreover, the “antibacterial effect / interaction” value in assay [2] was “essentially complete elimination”.
In the case of Polymyxin B [Test 11], the CFU/mL in assay [2] (setting [3]) was 1.00 × 10^3 CFU/mL. In assay [2] (Example 2), the “% Reduction” value came out at 99.997% and the Log10 reduction was 4.55.

(Values after patent US10682360B2, “Antimicrobial formulations and applications thereof” (priority 2014, dated 2020).)
